US12240844B2 (Voronoi, Inc., priority 2019, dated 2025)

Key:
TNF-α = TNF-α secretion inhibition in LPS-treated THP-1 cells (ELISA); assay type: cell-based; conditions: Homo sapiens, compound 0.5 μM, LPS 500 ng/ml, 24 hours, read-out: THP-1/TNF-a (% inhib)
Procedure: (§1) In order to evaluate the cytokine secretion inhibitory efficacy of mononuclear cells, THP-1 cells (ATCC, #TIB-202) as a human-derived monocyte cell line were cultured in RPMI-1640 (Hyclone, SH30027.01) media in which 10% fetal bovine serum (Hyclone, SH30084.03), 1% penicillin streptomycin (Welgene, LS202-02) and 50 μM 2-Mercaptoethanol (Gibco, #21985023) were contained. In the test, 1.5-2×10^5 cells/250 μl per each well were dispensed in a 48-well plate (SPL, #30048) and incubated in an incubator at 37° C. and 5% CO2 for 16 hours, and then the compounds were diluted in DMSO so that the final concentration was 0.5 μM. It was treated with Lipopolysaccharides (LPS) (sigma, #L6529) […]. After treatment with the compound, the LPS was treated so that the final concentration was 500 ng/ml, and then the cell culture fluid was collected after culturing for 24 hours, and the degrees of the cytokines IL-6 (R&D system, #D6050) and TNF-α (R&D system, #DTA00D) contained in the culture fluid were collected using each ELISA kit. After performing the experiment according to the manufacturer's instructions, the absorbance at 450 nm was measured and analyzed using a microplate reader.

IL-6 = IL-6 secretion inhibition in LPS-treated THP-1 cells (ELISA); assay type: cell-based; conditions: Homo sapiens, compound 0.5 μM, LPS 500 ng/ml, 24 hours, read-out: THP1/IL6 (% inhib)
Procedure: as §1

SHP-77 = SHP-77 cancer cell proliferation inhibition (Cell Titer-Glo); assay type: cell-based; conditions: Homo sapiens, SHP77, SHP-77 small cell lung cancer cell line, 72 hours
Summary of the method: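 GI50 comes from CellTiter-Glo luminescence, read 10 min after reagent addition at RT, following 72 h compound treatment. Eleven concentrations were used (⅓ steps, highest 10 μM final) on 2000 cells/well. MDA-MB-231 and MDA-MB-468 were grown in DMEM, SHP-77 in RPMI.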

human DYRK1A and Tau = assay: Tau phosphorylation inhibition, ClariCELL Kinase Cell-Based Assay (Carnabio)
Summary of the method: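 HEK293 cells transiently expressing human DYRK1A and Tau were exposed to compound, then lysed. Released Tau was captured on plate and its phosphorylation quantified by ELISA with a phospho-Tau-specific antibody.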

GI50 (SHP-77)	SMILES	inhibition at 0.5 µM (TNF-α)	inhibition at 0.5 µM (IL-6)	inhibition at 0.25 µM (human DYRK1A and Tau)	inhibition at 0.5 µM (human DYRK1A and Tau)	inhibition at 1 µM (human DYRK1A and Tau)
–	CCNc1cc(Nc2ccc(C(=O)N3CCC(N4CCOCC4)CC3)c3c2OCO3)nc2[nH]cc(C(F)(F)F)c12 [Example 37, (7-((4-(ethylamino)-3-(trifluoromethyl)-1H-pyrrolo[2,3-b]pyridin-6-yl)amino)benzo[d][1,3]dioxol-4-yl)(4-morpholinopiperidin-1-yl)methanone]	100%	–	–	–	–
301 to 1000 nM	CCNc1cc(Nc2ccc(P3(=O)CCN(C(C)=O)CC3)cc2OC)nc2[nH]cc(C(F)(F)F)c12 [Example 42, 1-(4-(4-((4-(ethylamino)-3-(trifluoromethyl)-1H-pyrrolo[2,3-b]pyridin-6-yl)amino)-3-methoxyphenyl)-4-oxido-1,4-azaphosphinan-1-yl)ethan-1-one]	35.7%	48.3%	–	–	–
301 to 1000 nM	CCNc1cc(Nc2ccc(C(=O)N3C[C@@H]4C[C@H]3CO4)c3c2OCCO3)nc2[nH]cc(C(F)(F)F)c12 [Example 44, ((1S,4S)-2-oxa-5-azabicyclo[2.2.1]heptan-5-yl)(8-((4-(ethylamino)-3-(trifluoromethyl)-1H-pyrrolo[2,3-b]pyridin-6-yl)amino)-2,3-dihydrobenzo[b] [1,4]dioxin-5-yl)methanone]	100%	47.9%	–	–	–
–	CCNc1cc(Nc2ccc(C(=O)N3CCC(N4CCOCC4)CC3)c3c2OCC3)nc2[nH]cc(C(F)(F)F)c12 [Example 90, (7-((4-(ethylamino)-3-(trifluoromethyl)-1H-pyrrolo[2,3-b]pyridin-6-yl)amino)-2,3-dihydrobenzofuran-4-yl)(4-morpholinopiperidin-1-yl)methanone]	12.4%	12.2%	23.3%	51.7%	70.3%
–	O=C(c1ccc(Nc2cc(C3CC3)c3c(C(F)(F)F)c[nH]c3n2)c2c1CCO2)N1CCOCC1 [Example 91, (7-((4-cyclopropyl-3-(trifluoromethyl)-1H-pyrrolo[2,3-b]pyridin-6-yl)amino)-2,3-dihydrobenzofuran-4-yl)(morpholino) methanone]	9.6%	52.5%	12.9%	33.1%	44.3%
–	O=C(c1ccc(Nc2cc(NC3CC3)c3c(C(F)(F)F)c[nH]c3n2)c2c1CCO2)N1CCC(N2CCOCC2)CC1 [Example 92, (7-((4-(cyclopropylamino)-3-(trifluoromethyl)-1H-pyrrolo[2,3-b]pyridin-6-yl)amino)-2,3-dihydrobenzofuran-4-yl)(4-morpholinopiperidin-1-yl)methanone]	–	–	27.5%	52.4%	77.2%
–	O=C(c1ccc(Nc2cc(C3CC3)c3c(C(F)(F)F)c[nH]c3n2)c2c1CCO2)N1CCC(N2CCOCC2)CC1 [Example 93, (7-((4-cyclopropyl-3-(trifluoromethyl)-1H-pyrrolo[2,3-b]pyridin-6-yl)amino)-2,3-dihydrobenzofuran-4-yl)(4-morpholinopiperidin-1-yl)mthanone]	–	–	12%	28.8%	50.1%
–	CCNc1cc(Nc2ccc(P3(=O)CCN(C4CCOCC4)CC3)cc2OC)nc2[nH]cc(C(F)(F)F)c12 [Example 94, 4-(4-((4-(ethylamino)-3-(trifluoromethyl)-1H-pyrrolo[2,3-b]pyridin-6-yl)amino)-3-methoxyphenyl)-1-(tetrahydro-2H-pyran-4-yl)-1,4-azaphosphinane 4-oxide]	6.6%	21%	22.2%	30.5%	53.2%
301 to 1000 nM	COCCNc1cc(Nc2ccc(S(=O)(=O)N3CCC(N4CCOCC4)CC3)c3c2OCCO3)nc2[nH]cc(C(F)(F)F)c12 [Example 97, N^4-(2-methoxyethyl)-N^6-(8-((4-morpholonopiperidin-1-yl)sulfonyl)-2,3-dihydrobenzo[b] [1,4]dioxin-5-yl)-3-(trifluoromethyl)-1H-pyrrolo[2,3-b]pyridine-4,6-diamine]	5.5%	17%	22.3%	42%	67.2%
–	CCNc1cc(Nc2ccc(C(=O)N3CCN(C4COC4)CC3)c3c2OCCO3)nc2[nH]cc(C(F)(F)F)c12 [Example 173, (8-((4-(ethylamino)-3-(trifluoromethyl)-1H-pyrrolo[2,3-b]pyridin-6-yl)amino)-2,3-dihydrobenzo[b] [1,4]dioxin-5-yl)(4-(oxetan-3-yl)piperazin-1-yl)methanone]	5.9%	9.1%	5.2%	28.2%	46.4%
301 to 1000 nM	COc1cc(S(=O)(=O)N2CCC(N3CCOCC3)CC2)ccc1Nc1cc(NCCS(C)(=O)=O)c2c(C(F)(F)F)c[nH]c2n1 [Example 194, N^6-(2-methoxy-4-((4-morpholinopiperidin-1-yl)sulfonyl)phenyl)-N^4-(2-(methylsulfonyl)ethyl)-3-(trifluoromethyl)-1H-pyrrolo[2,3-b]pyridine-4,6-diamine]	37.6%	6.3%	–	–	–
–	CNc1cc(Nc2ccc(C(=O)N3CC[C@@H](N4CCOCC4)C3)c3c2OCC3)nc2[nH]cc(C(F)(F)F)c12 [Example 214, (R)-(7-((4-(methylamino)-3-(trifluoromethyl)-1H-pyrrolo[2,3-b]pyridin-6-yl)amino)-2,3-dihydrobenzofuran-4-yl)(3-morpholinopyrrolidin-1-yl)methanone]	12%	–	33.9%	60.1%	76.8%
301 to 1000 nM	COc1cc(S(=O)(=O)N2CCOCC2)ccc1Nc1cc(C2CC2)c2c(C(F)(F)F)c[nH]c2n1 [Example 222, 4-cyclopropyl-N-(2-methoxy-4-(morpholinosulfonyl)phenyl)-3-(trifluoromethyl)-1H-pyrrolo[2,3-b]pyridin-6-amine]	–	–	–	–	–
301 to 1000 nM	COc1cc(S(=O)(=O)N2CCOCC2)ccc1Nc1cc(C2CC2)c2c(C#N)c[nH]c2n1 [Example 227, 4-cyclopropyl-6-((2-methoxy-4-(morpholinosulfonyl)phenyl)amino)-1H-pyrrolo[2,3-b]pyridine-3-carbonitrile]	–	–	–	–	–
51 to 100 nM	COc1cc(S(=O)(=O)N2CCC(N3CCOCC3)CC2)ccc1Nc1cc(C2CC2)c2c(C#N)c[nH]c2n1 [Example 228, 4-cyclopropyl-6-((2-methoxy-4-((4-morpholinopiperidin-1-yl)sulfonyl)phenyl)amino)-1H-pyrrolo[2,3-b]pyridine-3-carbonitrile]	–	–	–	–	–
–	CNc1cc(Nc2ccc(C(=O)N3CCC(N4CCOCC4)CC3)c3c2OCC3)nc2[nH]cc(C(F)(F)F)c12 [Example 234, (7-((4-(methylamino)-3-(trifluoromethyl)-1H-pyrrolo[2,3-b]pyridin-6-yl)amino)-2,3-dihydrobenzofuran-4-yl)(4-morpholinopiperidin-1-yl)methanone]	12.4%	50.9%	41.8%	65.3%	81.5%
–	CCNc1cc(Nc2ccc(C(=O)N3CCC(N4C[C@H]5C[C@@H]4CO5)CC3)c3c2OCC3)nc2[nH]cc(C(F)(F)F)c12 [Example 244, (4-((1R,4R)-2-oxa-5-azabicyclo[2.2.1]heptan-5-yl)piperidin-1-yl)(7-((4-(ethylamino)-3-(trifluoromethyl)-1H-pyrrolo[2,3-b]pyridin-6-yl)amino)-2,3-dihydrobenzofuran-4-yl)methanone]	12.7%	40.1%	58%	86%	107%
–	CCNc1cc(Nc2ccc(C(=O)N3CCN(C4COC4)CC3)c3c2OCC3)nc2[nH]cc(C(F)(F)F)c12 [Example 248, (7-((4-(ethylamino)-3-(trifluoromethyl)-1H-pyrrolo[2,3-b]pyridin-6-yl)amino)-2,3-dihydrobenzofuran-4-yl)(4-(oxetan-3-yl)piperazin-1-yl)methanone]	9.2%	48.4%	53.5%	76%	95.1%
301 to 1000 nM	CCNc1cc(Nc2cc(F)c(S(=O)(=O)N3CCC(N4CCOCC4)CC3)cc2OC)nc2[nH]cc(C(F)(F)F)c12 [Example 266, N^4-ethyl-N^6-(5-fluoro-2-methoxy-4-((4-morpholinopiperidin-1-yl)sulfonyl)phenyl)-3-(trifluoromethyl)-1H-pyrrolo[2,3-b]pyridine-4,6-diamine]	–	–	–	–	–
